Measurements taken from ChEMBL document CHEMBL2406991, “A novel series of metabotropic glutamate receptor 5 negative allosteric modulators based on a 4,5,6,7-tetrahydropyrazolo[1,5-a]pyridine core” (Bioorg Med Chem Lett, 2013).
Values after ≈ are worked out from the molar mass of the structure shown. Blank lines part the entries; values can stand above or below the compound they belong to.

Legend:
[1] = Intrinsic clearance in human microsomes measured per mg of protein; format: ADME, Microsome
[2] = Intrinsic clearance in rat microsomes measured per mg of protein; format: ADME, Microsome
[3] = biological target: Metabotropic glutamate receptor 5 (Rattus norvegicus) (UniProt P31424); experiment: Inhibition of rat mGluR5 receptor expressed in HEK293 cells at 30 uM relative to control; format: cell-based
[4] = biological target: Metabotropic glutamate receptor 5 (Rattus norvegicus, UniProt P31424); experiment: Negative allosteric modulation of rat mGluR5 receptor expressed in HEK293 cells assessed as intracellular calcium flux after 170 seconds by FLIPR assay; format: functional, cell-based
[5] = biological target: Metabotropic glutamate receptor 5 (Rattus norvegicus) (UniProt P31424); experiment: Partial negative allosteric modulation of rat mGluR5 receptor expressed in HEK293 cells assessed as intracellular calcium flux after 170 seconds by FLIPR assay relative to control; format: functional, cell-based
Cytochrome P450 3A4 = Cytochrome P450 3A4 (Homo sapiens, UniProt P08684); experiment: Inhibition of CYP3A4 (unknown origin); format: ADME
Cytochrome P450 2C9 = Cytochrome P450 2C9 (Homo sapiens, UniProt P11712); experiment: Inhibition of CYP2C9 (unknown origin); format: ADME
Cytochrome P450 2D6 = Cytochrome P450 2D6 (Homo sapiens, UniProt P10635); experiment: Inhibition of CYP2D6 (unknown origin); format: ADME
Cytochrome P450 1A2 = biological target: T1, Cytochrome P450 1A2 (Homo sapiens, UniProt P05177); experiment: Inhibition of CYP1A2 (unknown origin); format: ADME
T1 sequence (P05177 whole entry): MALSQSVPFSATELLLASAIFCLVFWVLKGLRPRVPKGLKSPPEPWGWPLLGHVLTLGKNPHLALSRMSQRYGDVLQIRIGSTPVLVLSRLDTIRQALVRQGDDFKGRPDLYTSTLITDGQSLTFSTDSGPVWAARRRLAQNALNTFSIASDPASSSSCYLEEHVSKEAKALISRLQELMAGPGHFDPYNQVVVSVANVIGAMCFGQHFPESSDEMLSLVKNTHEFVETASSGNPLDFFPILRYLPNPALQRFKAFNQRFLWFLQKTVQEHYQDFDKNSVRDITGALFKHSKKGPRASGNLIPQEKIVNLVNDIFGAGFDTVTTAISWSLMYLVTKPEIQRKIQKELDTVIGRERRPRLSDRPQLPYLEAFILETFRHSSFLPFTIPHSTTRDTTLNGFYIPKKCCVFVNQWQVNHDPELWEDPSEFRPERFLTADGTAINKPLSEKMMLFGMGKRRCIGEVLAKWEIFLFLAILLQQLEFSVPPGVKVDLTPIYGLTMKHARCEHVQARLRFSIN

[6] = Kinetic solubility of the compound in DMSO at pH 7.4; format: physicochemical; details: read-out: Kinetic_solubility
[7] = Kinetic solubility of the compound in DMSO at pH 1; format: physicochemical; details: read-out: Kinetic_solubility
[8] = biological target: Metabotropic glutamate receptor 5 (Rattus norvegicus) (UniProt P31424); experiment: Displacement of [3H]MPEP from mGluR5 receptor in Sprague-Dawley rat cortical homogenate after 1 hr by liquid scintillation spectrometric analysis
Plasma = experiment: Metabolic stability in rat plasma matrix; format: ADME, cell-free

Sequence of Metabotropic glutamate receptor 5 (P31424 whole entry): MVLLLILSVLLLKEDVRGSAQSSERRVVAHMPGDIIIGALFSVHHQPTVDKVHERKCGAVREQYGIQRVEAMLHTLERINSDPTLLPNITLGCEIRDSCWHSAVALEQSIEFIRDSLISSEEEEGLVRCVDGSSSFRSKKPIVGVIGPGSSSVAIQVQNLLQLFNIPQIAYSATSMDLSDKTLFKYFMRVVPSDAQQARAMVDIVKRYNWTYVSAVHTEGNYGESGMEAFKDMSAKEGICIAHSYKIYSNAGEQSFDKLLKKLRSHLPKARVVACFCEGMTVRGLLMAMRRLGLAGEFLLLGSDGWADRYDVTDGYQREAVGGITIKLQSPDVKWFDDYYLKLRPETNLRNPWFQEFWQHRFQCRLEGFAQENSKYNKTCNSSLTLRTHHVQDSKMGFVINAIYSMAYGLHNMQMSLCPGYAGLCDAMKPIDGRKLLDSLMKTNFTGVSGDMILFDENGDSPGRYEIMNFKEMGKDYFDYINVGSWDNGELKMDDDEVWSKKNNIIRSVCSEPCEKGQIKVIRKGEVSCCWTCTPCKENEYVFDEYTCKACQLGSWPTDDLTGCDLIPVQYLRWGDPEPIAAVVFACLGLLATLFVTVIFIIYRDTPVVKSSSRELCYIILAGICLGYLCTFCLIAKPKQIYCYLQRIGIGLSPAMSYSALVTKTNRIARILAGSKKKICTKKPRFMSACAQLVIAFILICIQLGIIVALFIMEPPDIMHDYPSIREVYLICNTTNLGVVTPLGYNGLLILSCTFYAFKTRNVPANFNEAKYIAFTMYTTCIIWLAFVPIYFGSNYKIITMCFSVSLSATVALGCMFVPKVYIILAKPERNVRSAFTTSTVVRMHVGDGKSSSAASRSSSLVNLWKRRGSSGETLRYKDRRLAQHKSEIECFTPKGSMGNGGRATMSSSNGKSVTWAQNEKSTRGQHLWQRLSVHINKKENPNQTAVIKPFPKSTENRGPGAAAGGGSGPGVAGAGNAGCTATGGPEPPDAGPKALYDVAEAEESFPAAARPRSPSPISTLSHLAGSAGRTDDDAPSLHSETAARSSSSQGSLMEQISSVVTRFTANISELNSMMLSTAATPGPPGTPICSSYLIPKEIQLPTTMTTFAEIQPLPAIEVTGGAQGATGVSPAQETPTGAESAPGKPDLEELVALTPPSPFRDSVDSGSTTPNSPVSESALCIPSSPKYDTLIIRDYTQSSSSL
Sequence of Metabotropic glutamate receptor 5 (Rattus norvegicus) (P31424 21-1203 limits assumed): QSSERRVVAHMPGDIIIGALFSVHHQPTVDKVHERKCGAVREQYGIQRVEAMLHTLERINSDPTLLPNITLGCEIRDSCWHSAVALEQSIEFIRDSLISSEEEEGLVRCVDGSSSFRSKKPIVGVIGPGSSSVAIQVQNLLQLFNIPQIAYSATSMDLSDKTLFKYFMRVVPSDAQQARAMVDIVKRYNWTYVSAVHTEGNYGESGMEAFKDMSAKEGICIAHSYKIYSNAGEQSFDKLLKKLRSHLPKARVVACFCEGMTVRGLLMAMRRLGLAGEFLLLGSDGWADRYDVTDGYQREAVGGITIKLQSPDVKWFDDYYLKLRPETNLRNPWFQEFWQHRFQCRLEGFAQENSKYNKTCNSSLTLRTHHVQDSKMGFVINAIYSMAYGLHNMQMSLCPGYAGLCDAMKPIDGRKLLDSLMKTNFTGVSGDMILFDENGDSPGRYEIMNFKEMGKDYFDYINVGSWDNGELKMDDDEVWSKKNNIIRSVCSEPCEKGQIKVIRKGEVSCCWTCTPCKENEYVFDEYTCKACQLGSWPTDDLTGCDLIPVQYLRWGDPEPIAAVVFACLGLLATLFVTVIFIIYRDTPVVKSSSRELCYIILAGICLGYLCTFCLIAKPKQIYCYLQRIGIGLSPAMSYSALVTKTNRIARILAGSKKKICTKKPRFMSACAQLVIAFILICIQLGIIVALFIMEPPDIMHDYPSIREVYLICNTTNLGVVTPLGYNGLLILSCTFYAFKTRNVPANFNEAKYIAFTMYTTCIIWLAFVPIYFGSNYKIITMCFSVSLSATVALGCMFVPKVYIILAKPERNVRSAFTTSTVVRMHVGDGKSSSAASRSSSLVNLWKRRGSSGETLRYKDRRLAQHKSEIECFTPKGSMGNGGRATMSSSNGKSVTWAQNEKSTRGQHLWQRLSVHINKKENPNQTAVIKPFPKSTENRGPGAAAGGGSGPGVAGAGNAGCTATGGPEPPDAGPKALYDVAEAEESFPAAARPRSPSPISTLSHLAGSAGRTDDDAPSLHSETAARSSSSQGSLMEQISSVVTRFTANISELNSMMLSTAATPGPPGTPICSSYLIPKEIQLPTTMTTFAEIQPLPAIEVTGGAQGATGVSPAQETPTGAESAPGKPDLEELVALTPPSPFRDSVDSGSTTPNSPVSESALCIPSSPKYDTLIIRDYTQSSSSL
Sequence of Cytochrome P450 2D6 (P10635 whole entry): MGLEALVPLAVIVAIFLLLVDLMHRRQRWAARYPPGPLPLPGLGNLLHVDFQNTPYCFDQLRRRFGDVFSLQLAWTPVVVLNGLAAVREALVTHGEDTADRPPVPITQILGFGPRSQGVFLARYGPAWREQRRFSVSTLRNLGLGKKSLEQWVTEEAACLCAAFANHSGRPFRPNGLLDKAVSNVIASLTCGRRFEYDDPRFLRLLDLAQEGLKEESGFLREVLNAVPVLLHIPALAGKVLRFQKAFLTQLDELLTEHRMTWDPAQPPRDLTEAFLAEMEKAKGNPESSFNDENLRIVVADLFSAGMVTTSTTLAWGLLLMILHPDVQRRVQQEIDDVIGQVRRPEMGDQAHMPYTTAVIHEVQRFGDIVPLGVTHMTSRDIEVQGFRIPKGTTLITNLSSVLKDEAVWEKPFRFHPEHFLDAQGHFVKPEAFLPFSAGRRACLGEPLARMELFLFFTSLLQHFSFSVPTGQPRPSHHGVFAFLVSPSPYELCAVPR
Sequence of Cytochrome P450 2C9 (P11712 whole entry): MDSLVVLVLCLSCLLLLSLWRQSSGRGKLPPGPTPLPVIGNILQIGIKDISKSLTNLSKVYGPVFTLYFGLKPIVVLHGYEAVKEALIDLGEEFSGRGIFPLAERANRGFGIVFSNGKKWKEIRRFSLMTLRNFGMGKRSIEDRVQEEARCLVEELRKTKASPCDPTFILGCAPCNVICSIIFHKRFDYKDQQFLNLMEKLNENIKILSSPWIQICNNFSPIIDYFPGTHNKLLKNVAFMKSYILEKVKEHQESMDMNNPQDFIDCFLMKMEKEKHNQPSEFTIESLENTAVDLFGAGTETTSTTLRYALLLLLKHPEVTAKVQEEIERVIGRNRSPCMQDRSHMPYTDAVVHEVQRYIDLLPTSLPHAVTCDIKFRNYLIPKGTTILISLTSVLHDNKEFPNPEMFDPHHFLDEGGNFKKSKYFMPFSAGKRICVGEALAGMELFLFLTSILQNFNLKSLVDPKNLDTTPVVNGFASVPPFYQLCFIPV
Sequence of Cytochrome P450 3A4 (P08684 whole entry): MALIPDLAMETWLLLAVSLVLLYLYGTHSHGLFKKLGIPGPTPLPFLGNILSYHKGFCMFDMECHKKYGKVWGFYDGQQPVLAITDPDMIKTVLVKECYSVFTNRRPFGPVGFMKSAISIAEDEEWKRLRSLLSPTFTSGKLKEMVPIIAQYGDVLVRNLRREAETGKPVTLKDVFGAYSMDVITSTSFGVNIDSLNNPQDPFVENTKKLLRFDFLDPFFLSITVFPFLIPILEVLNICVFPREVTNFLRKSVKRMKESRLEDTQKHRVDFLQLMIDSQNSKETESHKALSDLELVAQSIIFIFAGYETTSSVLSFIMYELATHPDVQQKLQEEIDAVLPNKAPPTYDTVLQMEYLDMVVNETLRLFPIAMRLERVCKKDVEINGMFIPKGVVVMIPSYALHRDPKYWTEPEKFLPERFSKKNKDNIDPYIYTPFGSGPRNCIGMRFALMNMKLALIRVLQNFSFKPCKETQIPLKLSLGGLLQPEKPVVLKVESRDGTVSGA

Compound: N#Cc1ccc(NC(=O)c2cc3ccccn3n2)nc1
- IC50 ([4]; read-out: IC50): 1810 nM

Compound: c1ccc(-c2cc3n(n2)CCCC3)cc1
- IC50 ([4]; read-out: IC50): 1890 nM

Compound: Clc1ccnc(-c2cc3n(n2)CCCC3)c1
- IC50 ([4]; read-out: IC50): 675 nM

Compound: Cc1cccc(COc2cc3n(n2)CCCC3)c1
- IC50 ([4]; read-out: IC50): 769 nM

Compound: COc1cccc(NC(=O)c2cc3n(n2)CCCC3)n1
- IC50 ([4]; hek293): Not Active

Compound: Cc1cccnc1-c1cc2n(n1)CCCC2
- IC50 ([4]; hek293): Not Active

Compound: Cc1cccc(-c2cc3n(n2)CCCC3)n1
- IC50 ([4]; read-out: IC50): 1240 nM

Compound: c1ccc(COc2cc3n(n2)CCCC3)cc1
- IC50 ([4]; hek293): Not Active

Compound: c1ccc(COc2cc3n(n2)CCCC3)nc1
- IC50 ([4]; read-out: IC50): 2500 nM

Compound: Clc1cccc(COc2cc3n(n2)CCCC3)c1
- IC50 [5]: 332 nM

Compound: Cc1cccc(NC(=O)c2cc3n(n2)CCCC3)n1
- IC50 ([4]; hek293): Not Active

Compound: Clc1cccc(-c2cc3n(n2)CCCC3)n1
- IC50 ([4]; read-out: IC50): 1520 nM

The remaining lines, values ahead:

- microsomal CLint [1]: < 5 µL/min/mg
- microsomal CLint [2]: < 5 µL/min/mg
- inhibition [3]: > 99%
- IC50 ([4]; read-out: IC50): 2620 nM
Compound: Cc1cc(C(=O)Nc2ccc(C#N)cn2)nn1C

- IC50 [5]: 451 nM
Compound: N#Cc1cccc(COc2cc3n(n2)CCCC3)c1

- IC50 ([4]; read-out: IC50): > 10000 nM
Compound: O=C(Nc1ncccc1O)c1cc2n(n1)CCCC2

- IC50 ([4]; read-out: IC50): 262 nM
Compound: O=C(Nc1ccc(Cl)cn1)c1cc2n(n1)CCCC2

- IC50 ([4]; hek293): Not Active
Compound: CC(=O)c1ccc(COc2cc3n(n2)CCCC3)nc1

- IC50 ([4]; read-out: IC50): 7180 nM
Compound: N#Cc1ccc(CC(=O)c2nn3c(c2C(F)(F)F)CCCC3)nc1

- IC50 ([4]; read-out: IC50): > 10000 nM
Compound: Nc1cccnc1NC(=O)c1cc2n(n1)CCCC2

- INH (Cytochrome P450 3A4): > 10 µM
- INH (Cytochrome P450 2C9): > 10 µM
- INH (Cytochrome P450 2D6): > 10 µM
- microsomal CLint [1]: 79 µL/min/mg
- microsomal CLint [2]: 649 µL/min/mg
- inhibition [3]: > 99%
- IC50 ([4]; read-out: IC50): 108 nM
- INH (Cytochrome P450 1A2): > 10 µM
Compound: N#Cc1ccc(CC(=O)c2nn3c(c2Cl)CCCC3)nc1

- INH (Cytochrome P450 3A4): > 10 µM
- INH (Cytochrome P450 2C9): > 10 µM
- INH (Cytochrome P450 2D6): > 10 µM
- solubility kinetic [6]: 30 µg/mL (≈ 113 µM)
- solubility kinetic [7]: 80 µg/mL (≈ 300 µM)
- microsomal CLint [1]: 46 µL/min/mg
- microsomal CLint [2]: 108 µL/min/mg
- INH [8]: 139 nM
- inhibition [3]: > 99%
- IC50 ([4]; read-out: IC50): 53 nM
- INH (Cytochrome P450 1A2): > 10 µM
Compound: N#Cc1ccc(CC(=O)c2cc3n(n2)CCCC3)nc1

- INH (Cytochrome P450 3A4): > 10 µM
- INH (Cytochrome P450 2C9): > 10 µM
- INH (Cytochrome P450 2D6): > 10 µM
- solubility kinetic [6]: 40 µg/mL (≈ 154 µM)
- solubility kinetic [7]: 100 µg/mL (≈ 384 µM)
- microsomal CLint [1]: 31 µL/min/mg
- Stability (Plasma): Unstable
- INH [8]: 166 nM
- inhibition [3]: > 99%
- IC50 ([4]; read-out: IC50): 60 nM
- INH (Cytochrome P450 1A2): > 10 µM
Compound: O=C(Nc1ccc(F)cn1)c1cc2n(n1)CCCC2

- INH (Cytochrome P450 3A4): > 10 µM
- INH (Cytochrome P450 2C9): > 10 µM
- INH (Cytochrome P450 2D6): > 10 µM
- microsomal CLint [1]: 83 µL/min/mg
- Stability (Plasma): Unstable
- INH [8]: 151 nM
- inhibition [3]: > 99%
- IC50 ([4]; read-out: IC50): 90 nM
- INH (Cytochrome P450 1A2): > 10 µM
Compound: N#Cc1ccc(NC(=O)c2cc3n(n2)CCCC3)nc1

- IC50 ([4]; hek293): Not Active
Compound: N#Cc1ccccc1COc1cc2n(n1)CCCC2

- IC50 ([4]; hek293): Not Active
Compound: Cc1ccnc(NC(=O)c2cc3n(n2)CCCC3)c1

- IC50 ([4]; read-out: IC50): 3000 nM
Compound: Cc1ccc(-c2cc3n(n2)CCCC3)nc1

- IC50 ([4]; read-out: IC50): 364 nM
Compound: O=C(Nc1ccccn1)c1cc2n(n1)CCCC2
